Experimental data: ChEMBL document CHEMBL3508140 (2016)

Experiments:
Type in all cases: ADME, organism-based, Canis lupus familiaris
[1] = Mean terminal half-life for ADR-529 following intravenous epirubicin at 1 mg.Kg-1 dose administered approximately 25 minute prior to epirubicin once weekly for four weeks in dog; settings: Beagle, plasma
[2] = Mean terminal half-life for ADR-529 following intravenous epirubicin at 0.5 mg.Kg-1 dose administered approximately 25 minute prior to epirubicin once weekly for four weeks in dog; settings: Beagle, plasma
[3] = AUC (2-8 h) of ADR-529 following intravenous ADR-529 at 20 mg.Kg-1 dose administered approximately 25 minute prior to epirubicin once weekly for four weeks in dog; parameters: dose 20 mgKg-1, dosed compound id 2.4681e+06, dosed compound name Dexrazoxane, dose level High, route intravenous, sampling time 8 h, study doses 5/10/20 mgKg-1; settings: Beagle, plasma
[4] = AUC (2-8 h) of ADR-529 following intravenous ADR-529 at 10 mg.Kg-1 dose administered approximately 25 minute prior to epirubicin once weekly for four weeks in dog; parameters: dose 10 mgKg-1, dosed compound id 2.4681e+06, dosed compound name Dexrazoxane, dose level Intermediate, route intravenous, sampling time 8 h, study doses 5/10/20 mgKg-1; settings: Beagle, plasma
[5] = Plasma clearance of daunorubicin following intravenous daunorubicin at 1.2 mg.Kg-1 dose in dog; parameters: dose 1.2 mg.Kg-1, dosed compound id 2.46809e+06, dosed compound name Daunorubicin, route intravenous; settings: Beagle, read-out: Clp
[6] = Terminal half-life of daunorubicin following intravenous daunorubicin at 1.2 mg.Kg-1 dose in dog; parameters: dose 1.2 mg.Kg-1, dosed compound id 2.46809e+06, dosed compound name Daunorubicin, route intravenous; settings: Beagle, plasma
[7] = Volume of distribution of daunorubicin following intravenous daunorubicin at 1.2 mg.Kg-1 dose in dog; parameters: dose 1.2 mg.Kg-1, dosed compound id 2.46809e+06, dosed compound name Daunorubicin, route intravenous; settings: Beagle, plasma

Row | SMILES | half-life [1] [h] | half-life [2] [h] | AUC [3] [ng·h/mL] | AUC [4] [ng·h/mL] | clearance [5] [mL/min] | half-life [6] [min] | Vd [7] [L/kg]
1 | C[C@@H](CN1CC(=O)NC(=O)C1)N1CC(=O)NC(=O)C1 [DEXRAZOXANE] | 1.2 | 1.8 | 5570 | 2710 |  |  | 
2 | COc1cccc2c1C(=O)c1c(O)c3c(c(O)c1C2=O)C[C@@](O)(C(C)=O)C[C@@H]3O[C@H]1C[C@H](N)[C@H](O)[C@H](C)O1 [DAUNORUBICIN] |  |  |  |  | 2030 | 5.3 | 51
